Laboratory results: the supplement of paper PMC10307832

Legend:
Assay in all cases: relative viability (nuclei count vs DMSO), 5 days (fraction); higher = more cells survive
Linifanib = compound: Cc1ccc(F)c(NC(=O)Nc2ccc(-c3cccc4[nH]nc(N)c34)cc2)c1 [Linifanib]
Summary of the method: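 Lung cancer cell lines received five library-drug doses (not always all listed) spaced by √10, pinned on vehicle-anchored 1536-well plates after an overnight stay at 37 °C. Five days later, with no medium change, nuclei were Hoechst-stained, imaged at 4× and counted with MetaXpress. Viability is treated-well nuclei relative to vehicle-well nuclei, as a median across plates. Passing plates had control CV below 25% and at least one doubling.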

Linifanib + AZD7762 = compound: Cc1ccc(F)c(NC(=O)Nc2ccc(-c3cccc4[nH]nc(N)c34)cc2)c1 [Linifanib] + NC(=O)Nc1cc(-c2cccc(F)c2)sc1C(=O)N[C@H]1CCCNC1 [AZD7762] (partner 0.2 µM)
Summary of the method: (§1)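 Values are medians from duplicate plates. Each reflects relative viability, defined as the nuclei count of treated wells over that of vehicle wells. Lung cancer cell lines in 1536-well plates were pin-tool dosed one day after seeding with one drug alone or with a fixed anchor-drug dose plus five library-drug doses (not always all listed) in √10 steps, then fixed, stained and imaged at 4× after 5 days.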

Linifanib + Olaparib = compound: Cc1ccc(F)c(NC(=O)Nc2ccc(-c3cccc4[nH]nc(N)c34)cc2)c1 [Linifanib] + O=C(c1cc(Cc2n[nH]c(=O)c3ccccc23)ccc1F)N1CCN(C(=O)C2CC2)CC1 [Olaparib] (partner 8 µM)
Summary of the method: as §1

Linifanib + Linsitinib = compound: Cc1ccc(F)c(NC(=O)Nc2ccc(-c3cccc4[nH]nc(N)c34)cc2)c1 [Linifanib] + C[C@]1(O)C[C@@H](c2nc(-c3ccc4ccc(-c5ccccc5)nc4c3)c3c(N)nccn32)C1 [Linsitinib] (partner 1 µM)
Summary of the method: as §1

Linifanib + Vorinostat = compound: Cc1ccc(F)c(NC(=O)Nc2ccc(-c3cccc4[nH]nc(N)c34)cc2)c1 [Linifanib] + O=C(CCCCCCC(=O)Nc1ccccc1)NO [Vorinostat] (partner 1 µM)
Summary of the method: as §1

Linifanib + Phenformin = compound: Cc1ccc(F)c(NC(=O)Nc2ccc(-c3cccc4[nH]nc(N)c34)cc2)c1 [Linifanib] + N=C(N)NC(=N)NCCc1ccccc1 [Phenformin] (partner 250 µM)
Summary of the method: as §1

| Cell Line | relative viability (Linifanib; 0.03162 µM) | relative viability (Linifanib; 0.1 µM) | relative viability (Linifanib; 0.3162 µM) | relative viability (Linifanib + AZD7762; first compound 0.03162 µM) | relative viability (Linifanib + AZD7762; first compound 0.1 µM) | relative viability (Linifanib + AZD7762; first compound 0.3162 µM) | relative viability (Linifanib + Olaparib; first compound 0.03162 µM) | relative viability (Linifanib + Olaparib; first compound 0.1 µM) | relative viability (Linifanib + Olaparib; first compound 0.3162 µM) | relative viability (Linifanib + Linsitinib; first compound 0.03162 µM) | relative viability (Linifanib + Linsitinib; first compound 0.1 µM) | relative viability (Linifanib + Linsitinib; first compound 0.3162 µM) | relative viability (Linifanib + Vorinostat; first compound 0.03162 µM) | relative viability (Linifanib + Vorinostat; first compound 0.1 µM) | relative viability (Linifanib + Vorinostat; first compound 0.3162 µM) | relative viability (Linifanib + Phenformin; first compound 0.03162 µM) | relative viability (Linifanib + Phenformin; first compound 0.1 µM) | relative viability (Linifanib + Phenformin; first compound 0.3162 µM) |
| --- | --- | --- | --- | --- | --- | --- | --- | --- | --- | --- | --- | --- | --- | --- | --- | --- | --- | --- |
| NCI-H2087 | 1.05 | 1.19 | 0.964 | 1.33 | 1.45 | 1.32 | 0.618 | 0.764 | 0.598 | 1.14 | 1.02 | 0.764 | 0.854 | 0.695 | 0.598 | 0.431 | 0.51 | 0.431 |
| NCI-H1734 | 1.04 | 1.06 | 0.942 | 0.564 | 0.591 | 0.538 | 0.591 | 0.68 | 0.597 | 0.869 | 0.925 | 0.849 | 0.815 | 0.849 | 0.83 | 0.384 | 0.454 | 0.366 |
| EMC-BAC-2 | 1.07 | 1.03 | 0.965 | 1.18 | 1.21 | 1.09 | 0.508 | 0.498 | 0.487 | 0.818 | 0.877 | 0.762 | 0.47 | 0.465 | 0.426 | 0.625 | 0.582 | 0.544 |
| LU99A | 1.02 | 1.03 | 0.853 | 0.378 | 0.433 | 0.356 | 0.289 | 0.25 | 0.287 | 0.503 | 0.551 | 0.505 | 0.497 | 0.43 | 0.505 | 0.878 | 0.892 | 0.793 |
| NCI-H1793 | 0.908 | 1.08 | 0.941 | 0.269 | 0.844 | 0.541 | 0.848 | 1.13 | 0.802 | 0.897 | 0.976 | 0.817 | 0.777 | 0.796 | 0.745 | 0.278 | 0.379 | 0.321 |
| NCI-H3122 | 1.02 | 1.02 | 0.975 | 1.01 | 1.04 | 0.977 | 0.641 | 0.637 | 0.61 | 0.997 | 0.986 | 1.04 | 1.12 | 1.09 | 0.927 | 0.381 | 0.399 | 0.362 |
